According to the NIST ThermoML archive (doi:10.1016/j.jct.2011.07.018):

Columns and labels:
[1] = excess molar enthalpy (molar enthalpy of mixing); xn = mol fraction of the nth substance listed; conditions: 298.15 K, 101 kPa, Liquid, isothermal titration calorimeter
[2] = 298.15 K; 101.33 kPa; Liquid; Vibrating tube method

CCCCCCC(C)=O [2-octanone] + CCCCCCO
[1]
Conditions | excess molar enthalpy [kcal/mol]
x2 = 0.021 | 0.0275
x2 = 0.041 | 0.0519
x2 = 0.06 | 0.0741
x2 = 0.079 | 0.0939
x2 = 0.097 | 0.112
x2 = 0.114 | 0.129
x2 = 0.13 | 0.143
x2 = 0.146 | 0.157
x2 = 0.164 | 0.171
x2 = 0.181 | 0.183
x2 = 0.197 | 0.195
x2 = 0.213 | 0.205
x2 = 0.228 | 0.214
x2 = 0.242 | 0.223
x2 = 0.259 | 0.232
x2 = 0.275 | 0.239
x2 = 0.29 | 0.246
x2 = 0.304 | 0.252
x2 = 0.314 | 0.258
x2 = 0.322 | 0.261
x2 = 0.331 | 0.264
x2 = 0.339 | 0.267
x2 = 0.349 | 0.27
x2 = 0.359 | 0.273
x2 = 0.367 | 0.275
x2 = 0.376 | 0.278
x2 = 0.385 | 0.28
x2 = 0.394 | 0.282
x2 = 0.405 | 0.284
x2 = 0.415 | 0.286
x2 = 0.426 | 0.287
x2 = 0.438 | 0.289
x2 = 0.448 | 0.29
x2 = 0.458 | 0.291
x2 = 0.469 | 0.291
x2 = 0.48 | 0.291
x2 = 0.492 | 0.292
x2 = 0.504 | 0.292
x2 = 0.517 | 0.291
x2 = 0.531 | 0.29
x2 = 0.542 | 0.289
x2 = 0.554 | 0.288
x2 = 0.566 | 0.286
x2 = 0.58 | 0.284
x2 = 0.593 | 0.282
x2 = 0.608 | 0.279
x2 = 0.623 | 0.275
x2 = 0.638 | 0.271
x2 = 0.652 | 0.266
x2 = 0.667 | 0.261
x2 = 0.682 | 0.255
x2 = 0.698 | 0.249
x2 = 0.714 | 0.241
x2 = 0.731 | 0.233
x2 = 0.746 | 0.225
x2 = 0.762 | 0.217
x2 = 0.778 | 0.207
x2 = 0.795 | 0.196
x2 = 0.812 | 0.185
x2 = 0.83 | 0.171
x2 = 0.85 | 0.157
x2 = 0.866 | 0.143
x2 = 0.879 | 0.129
x2 = 0.897 | 0.112
x2 = 0.916 | 0.0944
x2 = 0.936 | 0.0746
x2 = 0.956 | 0.0526
x2 = 0.978 | 0.0277

C[S+](C)[O-] [dimethyl sulfoxide]
Conditions | mass density [kg/m3]
[2] | 1095.32

CN(C)C=O [dimethylformamide]
Conditions | mass density [kg/m3]
[2] | 944.34

CCCCCCO [hexan-1-ol]
Conditions | mass density [kg/m3]
[2] | 815.21

CCCCCC(=O)O [hexanoic acid]
Conditions | mass density [kg/m3]
[2] | 922.06

CCCCCC(=O)O [hexanoic acid] + CCCCCCO
[1]
Conditions | excess molar enthalpy [kcal/mol]
x2 = 0.025 | 0.0232
x2 = 0.048 | 0.0423
x2 = 0.07 | 0.0586
x2 = 0.091 | 0.0722
x2 = 0.112 | 0.0841
x2 = 0.131 | 0.0942
x2 = 0.154 | 0.106
x2 = 0.176 | 0.115
x2 = 0.198 | 0.123
x2 = 0.218 | 0.129
x2 = 0.238 | 0.134
x2 = 0.256 | 0.139
x2 = 0.268 | 0.143
x2 = 0.277 | 0.145
x2 = 0.287 | 0.147
x2 = 0.298 | 0.149
x2 = 0.309 | 0.15
x2 = 0.321 | 0.152
x2 = 0.335 | 0.153
x2 = 0.349 | 0.155
x2 = 0.365 | 0.156
x2 = 0.377 | 0.156
x2 = 0.39 | 0.156
x2 = 0.404 | 0.156
x2 = 0.419 | 0.156
x2 = 0.435 | 0.156
x2 = 0.452 | 0.155
x2 = 0.47 | 0.153
x2 = 0.491 | 0.151
x2 = 0.506 | 0.149
x2 = 0.523 | 0.147
x2 = 0.54 | 0.144
x2 = 0.559 | 0.141
x2 = 0.579 | 0.137
x2 = 0.601 | 0.132
x2 = 0.624 | 0.127
x2 = 0.649 | 0.121
x2 = 0.669 | 0.115
x2 = 0.691 | 0.109
x2 = 0.714 | 0.103
x2 = 0.738 | 0.0956
x2 = 0.765 | 0.0872
x2 = 0.793 | 0.0784
x2 = 0.817 | 0.07
x2 = 0.843 | 0.0609
x2 = 0.87 | 0.0511
x2 = 0.899 | 0.0404
x2 = 0.931 | 0.0272
x2 = 0.964 | 0.0141
